In patent publication US20090298942A1, “ANIMAL COMPOSITION” (priority 2002, published 2009):

Tested on: dogs
Test: Example 2: success at learning the discrimination task (Test B) after twenty two days on the assigned diet
Type: in vivo
Conditions: 0.3% amino acid added to control food product with approximately 2% leucine
Protocol: The baseline learning capability of each dog was determined in a discrimination task (Test A) allowing the dogs to be divided into two groups, slow and fast learners. The slow and fast learners were randomly assigned to diet A, B, C or D. Dogs remained on their assigned diet for a period of twenty two days and their learning capability was then re evaluated with another discrimination task (Test B). The time to successfully learn the discrimination task, the total number of discrimination attempts, and the proportion of correct responses by each dog was recorded.
Test B was introduced in stages in a similar way to Test A. Again each dog was in the test area for up to an hour depending on the length of time that it took for the dog to complete the task.
Stage 1 The food preference test was repeated where necessary.
Stage 2 The dog was taken down the side of each box and encouraged to enter the food drop area from the rear by throwing food forward into the area.
Stage 3 The handler stood in front of one of the boxes and encouraged the dog to go down the side and into the box on its own. As its head reached the end of the entrance passage food was dropped by hand over the front panel into the area. This was repeated at random with both boxes.
Stage 4 The dog was placed centrally about 2.5 m back from the boxes and a red light was activated. The handler walked forward towards the light encouraging the dog to go forward along the side passage and into the box alone where a food pellet was dropped through the hatch as the dog's head reached the end of the entrance passage.
Stage 5 The dog was placed centrally approximately 3 m away from the equipment. A light was activated and the dog allowed time to scan the equipment. The dog was then released to make its own decision about which box to approach. If and when it entered the correct box a food pellet was dropped into the area.
These five introductory stages took, on average, 20 minutes, depending on the initial reaction of the dog to the surroundings. […]

CC[C@H](C)[C@H](N)C(=O)O [isoleucine]
improvement in canine learning: Statistically significant improvements in canine learning were not demonstrated

CC(C)C[C@H](N)C(=O)O [leucine]
improvement in canine learning: measurable improvement in canine learning

N[C@@H](Cc1c[nH]c2ccccc12)C(=O)O [tryptophan]
improvement in canine learning: Statistically significant improvements in canine learning were not demonstrated
